# How the values were obtained:
# [1] = Oral bioavailability in dog; type: ADME, organism-based, Canis lupus familiaris; details: in vivo
# [2] = Oral bioavailability in monkey; type: ADME, organism-based, Macaca mulatta; details: rhesus monkey, in vivo
# in vitro = details: PAMPA, pH 6.5
# [3] = Bioavailability in dog at […], po by cassette assay; type: ADME, organism-based, Canis lupus familiaris; details: in vivo
# [4] = Cmax in dog at […], po by cassette assay; type: ADME, organism-based, Canis lupus familiaris; parameters: route oral; details: in vivo
# [5] = AUC (0 to 24 hrs) in dog at […], po by cassette assay; type: ADME, organism-based, Canis lupus familiaris; parameters: time < 24 hr, route oral; details: plasma
# in vivo [6] = details: dog, iv, 1 mg/mL
# in vivo [7] = details: dog, iv, 1 mg/mL; remark: listed apart in the source
# Rhesus monkey [8] = experiment: (§1) Bioavailability in monkey at 0.32 mg/kg, po by cassette assay; type: ADME, organism-based, Macaca mulatta; details: in vivo
# [9] = Terminal half life in monkey at 0.186 mg/kg, iv by cassette assay; type: ADME, organism-based, Macaca mulatta; parameters: dose 0.186 mg/kg, route intravenous; details: rhesus monkey, in vivo, read-out: beta t1/2 (converted)
# [10] = Bioavailability in dog at 0.2 mg/kg, po by cassette assay; type: ADME, organism-based, Canis lupus familiaris; details: in vivo
# [11] = Cmax in rat at 0.32 mg/kg, po by cassette assay; type: ADME, organism-based; parameters: dose 0.32 mg/kg, route oral; details: in vivo
# [12] = AUC (0 to 24 hrs) in rat at 0.32 mg/kg, po by cassette assay; type: ADME, organism-based; parameters: time < 24 hr, dose 0.32 mg/kg, route oral; details: plasma
# [13] = Cmax in monkey at 0.32 mg/kg, po by cassette assay; type: ADME, organism-based, Macaca mulatta; parameters: dose 0.32 mg/kg, route oral; details: rhesus monkey, in vivo
# Rhesus monkey [14] = experiment: (§2) AUC (0 to 24 hrs) in monkey at 0.32 mg/kg, po by cassette assay; type: ADME, organism-based, Macaca mulatta, Plasma; parameters: time < 24 hr, dose 0.32 mg/kg, route oral; details: in vivo, 24 h
# [15] = Cmax in dog at 2.0 mg/kg, po by cassette assay; type: ADME, organism-based, Canis lupus familiaris; parameters: dose 2 mg/kg, route oral; details: in vivo
# [16] = AUC (0 to 24 hrs) in dog at 2.0 mg/kg, po by cassette assay; type: ADME, organism-based, Canis lupus familiaris; parameters: time < 24 hr, dose 2 mg/kg, route oral; details: plasma
# [17] = Intrinsic clearance in monkey liver microsome; type: ADME, Macaca mulatta; details: rhesus monkey, liver microsomes
# [18] = Intrinsic clearance in human liver microsome; type: ADME; details: liver microsomes
# [19] = Terminal half life in dog at 0.1 mg/kg, iv by cassette assay; type: ADME, organism-based, Canis lupus familiaris; parameters: dose 0.1 mg/kg, route intravenous; details: in vivo, read-out: beta t1/2 (converted)
# [20] = Total clearance in dog at 0.1 mg/kg, iv by cassette assay; type: ADME, organism-based, Canis lupus familiaris; parameters: dose 0.1 mg/kg, route intravenous; details: in vivo
# [21] = Terminal half life in rat at 0.32 mg/kg, iv by cassette assay; type: ADME, organism-based; parameters: dose 0.32 mg/kg, route intravenous; details: in vivo, read-out: beta t1/2 (converted)
# [22] = Total clearance in rat at 0.32 mg/kg, iv by cassette assay; type: ADME, organism-based; parameters: dose 0.32 mg/kg, route intravenous; details: in vivo
# [23] = Bioavailability in rat at 0.32 mg/kg, po by cassette assay; type: ADME, organism-based; details: in vivo
# [24] = as §1; type: ADME, organism-based, Macaca mulatta; details: rhesus monkey, in vivo
# [25] = Total clearance in monkey at 0.32 mg/kg, iv by cassette assay; type: ADME, organism-based, Macaca mulatta; parameters: dose 0.32 mg/kg, route intravenous; details: rhesus monkey, in vivo
# [26] = as §2; type: ADME, organism-based, Macaca mulatta, Plasma; parameters: time < 24 hr, dose 0.32 mg/kg, route oral; details: rhesus monkey, plasma
# [27] = Intrinsic clearance in dog liver microsome; type: ADME, Canis lupus familiaris; details: liver microsomes
# [28] = Cmax in dog at 0.1 mg/kg, po by cassette assay; type: ADME, organism-based, Canis lupus familiaris; parameters: dose 0.1 mg/kg, route oral; details: in vivo
# [29] = AUC (0 to 24 hrs) in dog at 0.1 mg/kg, po by cassette assay; type: ADME, organism-based, Canis lupus familiaris; parameters: time < 24 hr, dose 0.1 mg/kg, route oral; details: plasma
# [30] = Bioavailability in dog at 0.1 mg/kg, po by cassette assay; type: ADME, organism-based, Canis lupus familiaris; details: in vivo
# [31] = Terminal half life in monkey at 0.32 mg/kg, iv by cassette assay; type: ADME, organism-based, Macaca mulatta; parameters: dose 0.32 mg/kg, route intravenous; details: rhesus monkey, in vivo, read-out: beta t1/2 (converted)
# in vivo [32] = details: dog, po, 1 mg/mL
# in vivo [33] = details: dog, po, 1 mg/mL; remark: listed apart in the source
# in vivo [34] = details: dog, plasma, po, 1 mg/mL
# [35] = Total clearance in dog at 0.83 mg/kg, iv by cassette assay; type: ADME, organism-based, Canis lupus familiaris; parameters: dose 0.83 mg/kg, route intravenous; details: in vivo
# [36] = Bioavailability in dog at 3.2 mg/kg, po by cassette assay; type: ADME, organism-based, Canis lupus familiaris; details: in vivo
# [37] = Terminal half life in monkey at 0.83 mg/kg, iv by cassette assay; type: ADME, organism-based, Macaca mulatta; parameters: dose 0.83 mg/kg, route intravenous; details: rhesus monkey, in vivo, read-out: beta t1/2 (converted)
# [38] = Total clearance in monkey at 0.83 mg/kg, iv by cassette assay; type: ADME, organism-based, Macaca mulatta; parameters: dose 0.83 mg/kg, route intravenous; details: rhesus monkey, in vivo
# [39] = Bioavailability in monkey at 1.0 mg/kg, po by cassette assay; type: ADME, organism-based, Macaca mulatta; details: rhesus monkey, in vivo
# [40] = Terminal half life in dog at 0.83 mg/kg, iv by cassette assay; type: ADME, organism-based, Canis lupus familiaris; parameters: dose 0.83 mg/kg, route intravenous; details: in vivo, read-out: beta t1/2 (converted)
# [41] = Cmax in rat at 1.0 mg/kg, po by cassette assay; type: ADME, organism-based; parameters: dose 1 mg/kg, route oral; details: in vivo
# [42] = AUC (0 to 24 hrs) in rat at 1.0 mg/kg, po by cassette assay; type: ADME, organism-based; parameters: time < 24 hr, dose 1 mg/kg, route oral; details: plasma
# [43] = Cmax in dog at 3.2 mg/kg, po by cassette assay; type: ADME, organism-based, Canis lupus familiaris; parameters: dose 3.2 mg/kg, route oral; details: in vivo
# [44] = AUC (0 to 24 hrs) in dog at 3.2 mg/kg, po by cassette assay; type: ADME, organism-based, Canis lupus familiaris; parameters: time < 24 hr, dose 3.2 mg/kg, route oral; details: plasma
# [45] = Cmax in monkey at 1.0 mg/kg, po by cassette assay; type: ADME, organism-based, Macaca mulatta; parameters: dose 1 mg/kg, route oral; details: rhesus monkey, in vivo
# [46] = AUC (0 to 24 hrs) in monkey at 1.0 mg/kg, po by cassette assay; type: ADME, organism-based, Macaca mulatta; parameters: time < 24 hr, dose 1 mg/kg, route oral; details: rhesus monkey, plasma
# [47] = Cmax […] at 1.0 mg/kg, po by cassette assay; type: ADME, organism-based; parameters: dose 1 mg/kg, route oral; details: in vivo
# [48] = AUC (0 to 24 hrs) […] at 1.0 mg/kg, po by cassette assay; type: ADME, organism-based; parameters: time < 24 hr, dose 1 mg/kg, route oral; details: plasma
# [49] = Intrinsic clearance in rat liver microsome; type: ADME; details: liver microsomes
# [50] = Terminal half life in rat at 0.83 mg/kg, iv by cassette assay; type: ADME, organism-based; parameters: dose 0.83 mg/kg, route intravenous; details: in vivo, read-out: beta t1/2 (converted)
# [51] = Total clearance in rat at 0.83 mg/kg, iv by cassette assay; type: ADME, organism-based; parameters: dose 0.83 mg/kg, route intravenous; details: in vivo
# [52] = Bioavailability in rat at 1.0 mg/kg, po by cassette assay; type: ADME, organism-based; details: in vivo
smiles,measurement,setting,value
O=S(=O)(Nc1ccc(CCNC[C@H](O)c2cccnc2)cc1)c1ccc(-c2nc(-c3ccc(C(F)(F)F)cc3)cs2)cc1,bioavailability,[1],27%
same,bioavailability,[2],4%
O=C(O)c1ccc(-c2ccc(CCNC[C@H](O)c3cccc(Cl)c3)cc2)cc1OC1CCCCC1,Papp,in vitro,> 300 nm/s
CC(C)Cc1cc(-c2ccc(CCNC[C@H](O)c3ccccc3)cc2)ccc1C(=O)O,Papp,in vitro,260 nm/s
CC(C)Sc1cc(-c2ccc(CCNC[C@H](O)c3ccccc3)cc2)ccc1C(=O)O,Papp,in vitro,100 nm/s
O=C(O)c1ccc(-c2ccc(CCNC[C@H](O)c3cccc(Cl)c3)cc2)cc1,bioavailability,[3],> 95%
same,Cmax,[4],0.111 µg/mL
same,AUC(0-t) at 24 h,[5],1.98 µg·h/mL
same,clearance,in vivo [6],0.24 L/h/kg
same,half-life,in vivo [7],12.3 h
CC(C)Oc1cc(-c2ccc(CCNC[C@H](O)c3ccccc3)cc2)ccc1C(=O)O,F,Rhesus monkey [8],62%
same,half-life,[9],22.2 h
same,bioavailability,[10],68%
same,Cmax,[11],0.0947 µg/mL
same,AUC(0-t) at 24 h,[12],0.565 µg·h/mL
same,Cmax,[13],0.185 µg/mL
same,AUC,Rhesus monkey [14],0.209 µg·h/mL
same,Cmax,[15],0.025 µg/mL
same,AUC(0-t) at 24 h,[16],0.438 µg·h/mL
same,CLint scaled,[17],< 0.06 L/h/kg
same,CLint scaled,[18],< 0.06 L/h/kg
same,half-life,[19],14.5 h
same,clearance,[20],0.288 L/h/kg
same,half-life,[21],9.5 h
same,clearance,[22],0.45 L/h/kg
same,bioavailability,[23],80%
same,Papp,in vitro,180 nm/s
COc1cc(-c2ccc(CCNC[C@H](O)c3cccc(Cl)c3)cc2)ccc1C(=O)O,Papp,in vitro,33 nm/s
CC(C)Oc1cc(-c2ccc(CCNC[C@H](O)c3cccc(Cl)c3)cc2)ccc1C(=O)O,bioavailability,[24],83%
same,clearance,[25],0.054 L/h/kg
same,Cmax,[11],0.146 µg/mL
same,AUC(0-t) at 24 h,[12],0.7 µg·h/mL
same,Cmax,[13],0.171 µg/mL
same,AUC(0-t) at 24 h,[26],4.98 µg·h/mL
same,CLint scaled,[27],< 0.06 L/h/kg
same,CLint scaled,[18],< 0.06 L/h/kg
same,Cmax,[28],0.013 µg/mL
same,AUC(0-t) at 24 h,[29],0.149 µg·h/mL
same,half-life,[19],9.9 h
same,clearance,[20],0.294 L/h/kg
same,bioavailability,[30],45%
same,half-life,[21],4.8 h
same,clearance,[22],0.264 L/h/kg
same,bioavailability,[23],61%
same,half-life,[31],18.6 h
same,Papp,in vitro,> 300 nm/s
O=C(O)c1ccc(-c2ccc(CCNC[C@H](O)c3ccccc3)cc2)cc1OC1CCCCC1,Papp,in vitro,> 300 nm/s
O=C(O)c1ccc(Oc2ccc(CCNC[C@H](O)c3cccc(Cl)c3)cc2)cc1,clearance,in vivo [6],0.246 L/h/kg
same,bioavailability,in vivo [32],40%
same,Cmax,in vivo [33],0.236 µg/mL
same,AUC(0-t) at 24 h,in vivo [34],2.47 µg·h/mL
same,half-life,in vivo [7],6.2 h
CCOC(=O)COc1ccc2c(c1)C[C@@H](NC[C@H](O)c1cccc(Cl)c1)CCC2,clearance,[35],0.222 L/h/kg
same,bioavailability,[36],73%
same,half-life,[37],2.28 h
same,clearance,[38],0.708 L/h/kg
same,bioavailability,[39],35%
same,half-life,[40],1.63 h
same,Cmax,[41],0.038 µg/mL
same,AUC(0-t) at 24 h,[42],0.083 µg·h/mL
same,Cmax,[43],2.07 µg/mL
same,AUC(0-t) at 24 h,[44],10.6 µg·h/mL
same,Cmax,[45],0.184 µg/mL
same,AUC(0-t) at 24 h,[46],0.398 µg·h/mL
same,Cmax,[47],1.34 µg/mL
same,AUC(0-t) at 24 h,[48],4.1 µg·h/mL
same,CLint scaled,[49],2.12 L/h/kg
same,CLint scaled,[27],2.12 L/h/kg
same,CLint scaled,[18],1.09 L/h/kg
same,half-life,[50],0.3 h
same,clearance,[51],2.87 L/h/kg
same,bioavailability,[52],29%
O=C(O)c1cccc(-c2cccc(NCCNC[C@H](O)c3cccc(Cl)c3)c2)c1 [SOLABEGRON],bioavailability,[2],46%

# Reference: ChEMBL document CHEMBL1142325, “Discovery of a novel series of biphenyl benzoic acid derivatives as potent and selective human beta3-adrenergic receptor agonists with good oral bioavailability. Part I” (J Med Chem, 2008)
